A short description of data set [1]: stability tests of amide of formula II standards in solution. Format: physicochemical. The following applies: for time stable: solutions 590 ng/ml to 4720 ng/ml.
In data set [2] the test system is antibodies specific for busulfan. Nature of the data set: busulfan immunoassay of U.S. Pat. No. 7,148,024. Format: binding. The following applies: across the entire dose response curve. The source says: In accordance with a preferred embodiment of this invention, a competitive assay is provided utilizing the reagents and procedure disclosed in U.S. Pat. No. 7,148,024, whose disclosure is incorporated by reference In this preferred procedure, the preferred procedure as set forth in U.S. Pat. No. 7,148,024, utilized in its method antibodies produced from conjugates of an immunogenic polyamine polymer with a compound of the formula III-A:
[drawing 4] • wherein A′ is lower alkylene or lower alkenylene; • X′, Y, X, p and z are as above or mixtures thereof.
The fact that known concentrations of the amide of formula II can be calibrated with known concentrations of busulfan by means of a calibration assay can be seen from FIG. 3. […] These measured results are plotted against their relative concentrations. […] The amount or concentration of busulfan can be determined from the measured amount or concentration standards containing the amide of formula II by multiplying the measured results obtained from these amide standards by previously determined calibration factor which in the case of FIG. 3 is 0.107. In this manner one obtains the amount or concentration of busulfan in the samples based on the measured results with respect to the amide.

In the next data set the test system is antibody to busulfan. Nature of the data set: direct competitive ELISA for busulfan (busulfan-HRP conjugate, antibody-coated plate). Format: binding. The procedure: For the purpose of determining amide of formula II equivalents to busulfan of formula I and assaying busulfan with the amide standards by Enzyme-Linked Immunosorbent Assay (ELISA) method, polystyrene microtiter plates optimized for protein binding and containing 96 well per plate were used. Each well was coated with an antibody to busulfan produced as described in U.S. Pat. No. 7,238,024 Example 7, by adding 100 μL of antibody at 7.5 μg/mL in 0.05M sodium bicarbonate, pH=9.6 and then were blocked with 400 μL of 5% sucrose, 0.2% sodium caseinate solution for 30 minutes at room temperature. After removal of the post-coat solution the plates dried at 37° C. overnight.
The cross-reactivity of the amide was determined in a direct competitive Enzyme-Linked Immunosorbent Assay (ELISA) for busulfan. This method for measuring busulfan concentrations was performed with the microtiter plates that were sensitized with busulfan antibody described in Example 3. The amide stock solution at 6 mg/mL DMF was serially diluted 5000 ng/mL and 500 ng/mL in a buffer comprising 0.02 M sodium phosphate, 0.15 M NaCl, 0.1% BSA, 0.01% Thimerosal, pH 7.2. To perform the assay 30 μL of busulfan standards from Example 1, and 30 μL of amide of formula II dilutions were pre-diluted in a 96-well plate by the addition of 180 μL of sample pre-dilution buffer consisting of 0.02 M sodium phosphate, 0.15 M NaCl, 0.5% Dextran Sulfate, 0.01% Thimerosal, pH 7.2. 50 μL of all prediluted samples were added to the antibody coated microtiter plate of Example 3. After addition of the samples 50 μL of a busulfan-HRP conjugate at 100 ng/mL in a buffer comprising to 0.02 M sodium phosphate, 0.15 M NaCl, 0.2% BSA, 0.1% ANS (8-anilino-1-naphthalene sulfonic acid), 15 ppm ProClin® Preservative 300 was added. During the following 10 minute incubation (R.T., with shaking) there is a competition between sample (busulfan or amide) and busulfan-HRP for binding with the antibody in the well. Following this incubation the wells of the plate were washed three times with 0.02 M TRIS, 0.9% NaCl, 0.5% polyethylene glycol sorbitan monooleate TWEEN® 80 and 0.001% Thimerosal, pH 7.8 to remove any material that was not bound. To detect the amount of busulfan-HRP bound to the busulfan antibody in the wells, 100 μL of TMB (TMB Liquid Substrate) a substrate for HRP was added. To develop a measurable color in the wells there was a 10 second incubation (R.T., with shaking). Following the incubation 50 μL of stop solution comprising 1.5% sodium fluoride in di H2O was added to each well to stop the color development and after 10 seconds of shaking the absorbance was determined at 650 nm with a 96-well plate reader. The amount of busulfan-HRP in a well was proportional to the absorbance measured and inversely proportional to the amount of busulfan of formulated or amide of formulated in the sample. The absorbance of the color in the wells containing busulfan was compared to that with no busulfan analyte and a standard curve was generated. […] The cross-reactivity was used to determine the concentration of amide necessary to produce a calibration curve equivalent to that of busulfan (Example 6).
Using the busulfan antibody plates (Example 3) in a direct competitive Enzyme-Linked Immunosorbent Assay (ELISA) for busulfan described in Example 4, the GC-MS verified busulfan calibrators (Example 1) were used to generate a curve from 75 ng/mL to 2000 ng/mL and the amide calibrators were read off this standard curve as unknown samples. […] The X axis represents the verified busulfan concentration and the Y axis is the amide standards expressed as busulfan equivalence factor (amide concentration value x 0.107=busulfan equivalence factor e.g. 1410 ng/mL amide x 0.107=150 ng/mL busulfan equivalence).
On the technique in general: In an ELISA, binding on a coated surface is turned into a signal by an enzyme label.

For data set [3] the following is noted: cited from earlier work.
Data set [4] can be described thus: decomposition of busulfan standards in aqueous solution over time. The following applies: FIG. 1. Format: physicochemical. Here is the method:
In FIG. 1 a plurality of aqueous solutions of busulfan having varying concentrations of 100 ng/ml, 600 ng/ml, and 1200 ng/ml are incubated at room temperature. […] At room temperature for 5 days, more than 60% of the busulfan is decomposed.

For data set [5], the system named is antibodies specific for busulfan. The following applies: antibodies from immunogens of formulae III-A and III-B; cited from earlier work.

Like-named read-outs stand apart in the source and are kept apart here.

Turning to `CS(=O)(=O)NCCCCNS(C)(=O)=O` [amide of formula II], the time stable entry in data set [1] (4° C., FIG. 2) is reported as “at least 4 weeks”; in data set [1] (45° C., FIG. 2) it was “at least 4 weeks”. The decomposition on storage entry in data set [1] (stored at 4° C. and 45° C. for at least 4 weeks, FIG. 2) was “no decomposition”. Also, the “storage of amide solutions without significant deterioration” value in data set [1] (without any special precautions) is “more than one year”. Besides, in data set [2], the “relative cross reactivity as compared to busulfan” value is listed as 17.5%. Also, the “calibration factor (busulfan equivalence factor)” value in the data set with antibody to busulfan (FIG. 3, amide concentration x factor = busulfan equivalence) is on record as 0.107. For the same compound, the “busulfan calibrator concentration giving the same absorbance” value is recorded as 75 ng/mL in the data set with antibody to busulfan (amide at 705 ng/mL, FIG. 3); 150 ng/mL with antibody to busulfan (amide at 1410 ng/mL, FIG. 3); 300 ng/mL with antibody to busulfan (amide at 2820 ng/mL, FIG. 3); 600 ng/mL in the data set with antibody to busulfan (amide at 5640 ng/mL, FIG. 3); 200 ng/mL in the data set with antibody to busulfan (amide at 11280 ng/mL, FIG. 3); 2000 ng/mL in the data set with antibody to busulfan (amide at 18800 ng/mL, FIG. 3). The cross-reactivity in the data set with antibody to busulfan (recovery compared to busulfan standard, 5000 ng/mL amide) turned out to be 10.7%.
For orientation: half-life means the time needed for the level to fall by half in the phase considered. The low end stands for rapid decline, the high end for slow decline. Consider `CS(=O)(=O)OCCCCOS(C)(=O)=O` [busulfan], for which the “decomposition of busulfan calibrator” value in data set [3] (4° C., calibrator matrix spiked with busulfan) is given as “decomposes within a day”. Besides, the busulfan decomposed entry in data set [3] (room temperature for 5 days) and in data set [4] (room temperature for 5 days) was “more than 60%” in each case. The same compound gave a half-life in data set [4] (aqueous solution, 37° C., aqueous solutions 100, 600, 1200 ng/ml) of 14 h.
As to `O=S1(=O)CCC(O)C1` (centres unmarked) [tetrahydrothiophene-3-ol-1,1-dioxide], the “reaction or binding of the busulfan antibodies with blocking metabolites” value (from here on “reaction or binding”) in data set [5] is listed as “do not substantially react with or bind to”.
As for `C1CCSC1` [tetrahydrothiophene], the “reaction or binding” value in data set [5] is reported as “do not substantially react with or bind to”.
`O=S1(=O)CCCC1` [tetramethylene sulfone]: in data set [5], the “reaction or binding” value is given as “do not substantially react with or bind to”.
